Target: T1, connexin 43 (Cx43) hemichannel (Homo sapiens, UniProt P17302)
T1 construct: gene GJA1; human Cx43 tagged with GFP (hCx43-GFP)
Assay: TO-PRO-3 dye uptake in HeLa cells transfected with hCx43-GFP, Ca2+-free HBSS
Assay type: cell-based

T1 sequence (P17302 2-382): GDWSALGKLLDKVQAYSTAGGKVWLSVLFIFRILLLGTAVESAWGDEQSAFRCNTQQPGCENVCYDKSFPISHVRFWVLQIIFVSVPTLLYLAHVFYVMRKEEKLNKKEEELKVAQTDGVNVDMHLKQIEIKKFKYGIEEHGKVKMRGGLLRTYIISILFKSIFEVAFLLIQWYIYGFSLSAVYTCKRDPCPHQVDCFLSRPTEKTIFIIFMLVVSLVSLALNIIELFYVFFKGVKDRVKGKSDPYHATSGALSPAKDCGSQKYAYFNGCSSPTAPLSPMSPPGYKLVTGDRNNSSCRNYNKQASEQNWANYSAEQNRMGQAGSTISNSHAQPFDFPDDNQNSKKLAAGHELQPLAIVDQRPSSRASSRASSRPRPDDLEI

COc1cc2c(cc1O)C[C@H]1c3c(cc(O)c(OC)c3-2)CCN1C [boldine]
IC50: 12.5 µM

From article PMC12481613, “Boldine as a neuroprotective agent against motor neuron degeneration in models of amyotrophic lateral sclerosis” (Frontiers in Cellular Neuroscience, 2025)
